As usually defined, the IC50 is the concentration needed to halve the response being measured. Low values mean greater potency in that assay, high ones weaker potency in that assay. Broadly, the EC50 is the concentration that produces a half-maximal response.

What all share (type): cell-based
Assay [1] deals with YAP/TAZ-TEAD transcription. Nature of the assay: Reporter gene assay for measuring the inhibition of YAP/TAZ-TEAD transcription (TEAD-responsive element luciferase reporter in Hek293T cells). The note with it: 24 hours incubation. In short, it runs like this: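 HEK293T cells transiently transfected with a TEAD-responsive luciferase reporter were exposed to compounds for 24 h at 37° C/5% CO2, then luminescence was read. Percent inhibition normalised to vehicle (0%) and positive-control inhibitor (100%); IC50 derived.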
On the technique in general: In a reporter assay the amount or activity of a reporter protein is the signal.

Assay [2] has as its system NCI-H226 mesothelioma cell line. Nature of the assay: Mesothelioma cell line proliferation assay, NCI-H226 (ATPlite). The note with it: NCI-H226 cells, 6 days with compound, cell viability by ATPlite. As for the experimental part: (§1) Example 57: Activity of Compounds of the Disclosure in Mesothelioma Cell Line Proliferation Assays
(§2) Mesothelioma cell lines, NCI-H226 and NCI-H2052 (both sourced from the ATCC cell culture collection) were plated in 96-well plates (Corning® 96 Well White Polystyrene Microplate clear flat bottom, white polystyrene (TC-Treated)), at 1500 cells/well in full medium (RPMI 1640 ATCC modification with L-glutamine, HEPES, Phenol Red, Sodium Pyruvate, High glucose, Low sodium bicarbonate and 10% fetal bovine serum). Cells were incubated overnight at 37° C. in an incubator with 5% CO2. Then compounds, dissolved in DMSO, were added in dose-response. Cells were incubated with compound dilutions for another 6 days at 37° C. in an incubator with 5% CO2. Cell viability was quantitated using the ATPlite kit (Perkin-Elmer) and the luminescence was read-out using an Envision instrument (Perkin-Elmer). The amount of relative light units produced using the ATPlite kit was used to calculate percent of inhibition.
(§3) The activities of some example compounds are depicted in Table 4. The activity ranges A, B and C refer to EC50 values in the mesothelioma cell line proliferation assay as described as follows: “A”: EC50<1 μM; “B”: 1 μM≤EC50≤10 μM and “C”: EC50>10 μM; NT: not tested.
Background: Cellular ATP, detected with luciferase, serves as a proxy for viable cell number.

Assay [3] concerns NCI-H2052 mesothelioma cell line. The assay can be described thus: Mesothelioma cell line proliferation assay, NCI-H2052 (ATPlite). The note with it: NCI-H2052 cells, 6 days with compound, cell viability by ATPlite. As for the experimental part: as §1, §2, §3

The compound `CC(=O)NCC1CN(c2ccc(C(F)(F)F)cc2)c2ccc(C3CC3)nc2O1` (single isomer, unassigned) [81-En1, (R)- or (S)-N-((6-cyclopropyl-1-(4-(trifluoromethyl)phenyl)-2,3-dihydro-1H-pyrido[2,3-b][1,4]oxazin-3-yl)methyl)acetamide] came in with a half-inhibitory concentration (IC50) in assay [1] (Homo sapiens, HEK-293T, 24 h) below 1 µM. The EC50 is below 1 µM in assay [2] (Homo sapiens, 144 h) and below 1 µM in assay [3] (Homo sapiens, 144 h).

`CC(=O)NCC1CN(c2ccc(C(F)(F)F)cc2)c2ccc(N(C)C)nc2O1` (single isomer, unassigned) [87-En1, (R)- or (S)-N-((6-(dimethylamino)-1-(4-(trifluoromethyl)phenyl)-2,3-dihydro-1H-pyrido[2,3-b][1,4]oxazin-3-yl)methyl)acetamide]: in assay [1], the IC50 is below 1 µM. Also, the EC50 was below 1 µM in assay [2] (Homo sapiens, 144 h) and below 1 µM in assay [3] (Homo sapiens, 144 h).

`C=CC(=O)NC[C@H]1CN(c2ccc(C(F)(F)F)cc2)c2cccnc2N1` [38-En1, (S)—N-((1-(4-(trifluoromethyl)phenyl)-1,2,3,4-tetrahydropyrido[2,3-b]pyrazin-3-yl)methyl)acrylamide] displayed an IC50 in assay [1] (Homo sapiens, HEK-293T, 24 h) below 1 µM. In addition, the EC50 in assay [2] (Homo sapiens, 144 h) was below 1 µM; in assay [3] (Homo sapiens, 144 h), below 1 µM.

`C=CC(=O)NC[C@@H]1CN(c2ccc(C(F)(F)F)cc2)c2cccnc2N1` [38-En2, (R)-N-((1-(4-(trifluoromethyl)phenyl)-1,2,3,4-tetrahydropyrido[2,3-b]pyrazin-3-yl)methyl)acrylamide] came in with an IC50 in assay [1] (Homo sapiens, HEK-293T, 24 h) below 1 µM. Further, the EC50 in assay [2] (Homo sapiens, 144 h) was below 1 µM; in assay [3] (Homo sapiens, 144 h), below 1 µM.

For `CC(=O)N1CCN2c3ncccc3N(c3ccc(C(F)(F)F)cn3)CC2C1` (stereo not drawn) [53-En1, 1-(5-(5-(trifluoromethyl)pyridin-2-yl)-5,6,6a,7,9,10-hexahydro-8H-pyrazino[1,2-a]pyrido[3,2-e]pyrazin-8-yl)ethan-1-one], the IC50 in assay [1] is below 1 µM. For the same compound, the EC50 in assay [2] (Homo sapiens, 144 h) is below 1 µM; in assay [3] (Homo sapiens, 144 h) it was below 1 µM.

Compound `Cc1ccc2c(n1)N1CCC(C(=O)O)CC1CN2c1ccc(C(F)(F)F)cc1` [101-D2, (6aS,8S)— or (6aR,8S)— or (6aR,8R)— or (6aS,8R)-2-methyl-5-(4-(trifluoromethyl)phenyl)-6,6a,7,8,9,10-hexahydro-5H-dipyrido[1,2-a:3′,2′-e]pyrazine-8-carboxylic acid] gave an IC50 in assay [1] below 1 µM. The EC50 in assay [2] (Homo sapiens, 144 h) is below 1 µM; in assay [3] (Homo sapiens, 144 h) it was below 1 µM.

Turning to `Cc1ccc2c(n1)N1CCC(C(=O)O)CC1CN2c1ccc(C(F)(F)F)cc1` [101-D4, (6aS,8S)— or (6aR,8S)— or (6aR,8R)— or (6aS,8R)-2-methyl-5-(4-(trifluoromethyl)phenyl)-6,6a,7,8,9,10-hexahydro-5H-dipyrido[1,2-a:3′,2′-e]pyrazine-8-carboxylic acid], the IC50 in assay [1] was below 1 µM. Further, the EC50 in assay [2] and in assay [3] was below 1 µM each time.

On to `O=C(NO)C1CCN2c3ccccc3N(c3ccc(C(F)(F)F)cc3)CC2C1` [116B-En2, (6aS,8S)- or (6aR,8S)- or (6aR,8R)- or (6aS,8R)-N-hydroxy-5-(4-(trifluoromethyl)phenyl)-6,6a,7,8,9,10-hexahydro-5H-pyrido[1,2-a]quinoxaline-8-carboxamide], for which the IC50 in assay [1] was below 1 µM. The EC50 was below 1 µM in assay [2] (Homo sapiens, 144 h) and below 1 µM in assay [3] (Homo sapiens, 144 h).

Turning to `NC(=O)C1CCN2c3ccccc3N(c3ccc(C(F)(F)F)cc3)CC2C1` (stereo not drawn) [117B-En2, (cis)- or (trans)-5-(4-(trifluoromethyl)phenyl)-6,6a,7,8,9,10-hexahydro-5H-pyrido[1,2-a]quinoxaline-8-carboxamide], in assay [1], the IC50 was below 1 µM. Also, the EC50 is below 1 µM in assay [2] (Homo sapiens, 144 h) and below 1 µM in assay [3] (Homo sapiens, 144 h).

`O=C(O)C1(F)CCN2c3ccccc3N(c3ccc(C(F)(F)F)cc3)CC2C1` [123-D1, (6aS,8S)- or (6aR,8S)- or (6aR,8R)- or (6aS,8R)-8-fluoro-5-(4-(trifluoromethyl)phenyl)-6,6a,7,8,9,10-hexahydro-5H-pyrido[1,2-a]quinoxaline-8-carboxylic acid] came in with an IC50 in assay [1] (Homo sapiens, HEK-293T, 24 h) below 1 µM. Besides, the EC50 was below 1 µM in assay [2] (Homo sapiens, 144 h) and below 1 µM in assay [3] (Homo sapiens, 144 h).

In assay [1] (Homo sapiens, HEK-293T, 24 h), `C=CC(=O)NCC1CN(c2ccc(C(F)(F)F)cc2)c2ccccc2N1CC#N` (stereo not drawn) [compound 3, N-((1-(cyanomethyl)-4-(4-(trifluoromethyl)phenyl)-1,2,3,4-tetrahydroquinoxalin-2-yl)methyl)acrylamide] showed an IC50 below 1 µM. Moreover, the EC50 in assay [2] (Homo sapiens, 144 h) is below 1 µM; in assay [3] (Homo sapiens, 144 h) it was below 1 µM.

With `C=CC(=O)NCC1CN(c2ccc(C(F)(F)F)cc2)c2ccccc2N1CCC(N)=O` (stereo not drawn) [compound 13, N-((1-(3-amino-3-oxopropyl)-4-(4-(trifluoromethyl)phenyl)-1,2,3,4-tetrahydroquinoxalin-2-yl)methyl)acrylamide], the IC50 in assay [1] (Homo sapiens, HEK-293T, 24 h) is below 1 µM. In addition, the EC50 is below 1 µM in assay [2] (Homo sapiens, 144 h) and below 1 µM in assay [3] (Homo sapiens, 144 h).

On to `CC(=O)N1CCN2c3ccccc3N(c3ccc(C(F)(F)F)cc3)CC2C1` (stereo not drawn) [compound 15, 1-(6-(4-(trifluoromethyl)phenyl)-1,2,4,4a,5,6-hexahydro-3H-pyrazino[1,2-a]quinoxalin-3-yl)ethan-1-one], for which the IC50 in assay [1] (Homo sapiens, HEK-293T, 24 h) was below 1 µM. For the same compound, the EC50 in assay [2] (Homo sapiens, 144 h) was below 1 µM; in assay [3] (Homo sapiens, 144 h) it was below 1 µM.

Consider `C=CC(=O)NCC1CN(c2ccc(C(F)(F)F)cc2)c2ccccc2N1C` (stereo not drawn) [compound 17, N-((1-methyl-4-(4-(trifluoromethyl)phenyl)-1,2,3,4-tetrahydroquinoxalin-2-yl)methyl)acrylamide], for which the IC50 in assay [1] (Homo sapiens, HEK-293T, 24 h) is below 1 µM. The EC50 was below 1 µM in assay [2] (Homo sapiens, 144 h) and below 1 µM in assay [3] (Homo sapiens, 144 h).

For `C=CC(=O)NCC1CN(c2ccc(C(F)(F)F)cc2)c2ccccc2N1` (stereo not drawn) [compound 22, N-((4-(4-(trifluoromethyl)phenyl)-1,2,3,4-tetrahydroquinoxalin-2-yl)methyl)acrylamide], in assay [1] (Homo sapiens, HEK-293T, 24 h), the IC50 is below 1 µM. The EC50 in assay [2] (Homo sapiens, 144 h) is below 1 µM; in assay [3] (Homo sapiens, 144 h), below 1 µM.

For the compound `CNS(=O)(=O)N1CCN2c3ccccc3N(c3ccc(C(F)(F)F)cc3)CC2C1` (stereo not drawn) [compound 32, N-methyl-6-(4-(trifluoromethyl)phenyl)-1,2,4,4a,5,6-hexahydro-3H-pyrazino[1,2-a]quinoxaline-3-sulfonamide], in assay [1] (Homo sapiens, HEK-293T, 24 h), the IC50 was below 1 µM. The EC50 in assay [2] (Homo sapiens, 144 h) is below 1 µM; in assay [3] (Homo sapiens, 144 h), below 1 µM.

On to `CC(=O)NCC1CN(c2ccc(C(F)(F)F)cc2)c2ccccc2N1` (stereo not drawn) [compound 34, N-((4-(4-(trifluoromethyl)phenyl)-1,2,3,4-tetrahydroquinoxalin-2-yl)methyl)acetamide], for which, in assay [1], the concentration for half-maximal inhibition (IC50) was below 1 µM. Moreover, the EC50 in assay [2] (Homo sapiens, 144 h) was below 1 µM; in assay [3] (Homo sapiens, 144 h) it was below 1 µM.

Turning to `C=CC(=O)NCC1CN(c2ccc(C(F)(F)F)cc2)c2ccccc2O1` (stereo not drawn) [compound 35, N-((4-(4-(trifluoromethyl)phenyl)-3,4-dihydro-2H-benzo[b][1,4]oxazin-2-yl)methyl)acrylamide], the IC50 in assay [1] (Homo sapiens, HEK-293T, 24 h) was below 1 µM. In addition, the EC50 in assay [2] (Homo sapiens, 144 h) is below 1 µM; in assay [3] (Homo sapiens, 144 h), below 1 µM.

Consider `CC(=O)NCC1CN(c2ccc(C(F)(F)F)cc2)c2ccccc2O1` (stereo not drawn) [compound 36, N-((4-(4-(trifluoromethyl)phenyl)-3,4-dihydro-2H-benzo[b][1,4]oxazin-2-yl)methyl)acetamide], for which, in assay [1] (Homo sapiens, HEK-293T, 24 h), the IC50 is below 1 µM. Further, the EC50 in assay [2] (Homo sapiens, 144 h) was below 1 µM; in assay [3] (Homo sapiens, 144 h), below 1 µM.

In assay [1] (Homo sapiens, HEK-293T, 24 h), `C=CC(=O)N1CCN2C(=O)CN(c3ccc(C(F)(F)F)cc3)CC2C1` (stereo not drawn) [compound 37, 8-acryloyl-2-(4-(trifluoromethyl)phenyl)octahydro-4H-pyrazino[1,2-a]pyrazin-4-one] displayed an IC50 below 1 µM. Moreover, the EC50 is below 1 µM in assay [2] (Homo sapiens, 144 h) and below 1 µM in assay [3] (Homo sapiens, 144 h).

In turn, `FC(F)(F)c1ccc(N2CCN(Cc3cnc[nH]3)c3ccccc32)cc1` [compound 51, 1-((1H-imidazol-5-yl)methyl)-4-(4-(trifluoromethyl)phenyl)-1,2,3,4-tetrahydroquinoxaline] gave an IC50 in assay [1] (Homo sapiens, HEK-293T, 24 h) below 1 µM. Further, the EC50 in assay [2] (Homo sapiens, 144 h) was below 1 µM; in assay [3] (Homo sapiens, 144 h), below 1 µM.

In turn, `FC(F)(F)c1ccc(N2CCN(Cc3cn[nH]c3)c3ccccc32)cc1` [compound 63, 1-((1H-pyrazol-4-yl)methyl)-4-(4-(trifluoromethyl)phenyl)-1,2,3,4-tetrahydroquinoxaline] came in with an IC50 in assay [1] (Homo sapiens, HEK-293T, 24 h) below 1 µM. Moreover, the EC50 was below 1 µM in assay [2] (Homo sapiens, 144 h) and below 1 µM in assay [3] (Homo sapiens, 144 h).

Consider `CS(=O)(=O)N[C@@H]1C[C@@H]2CN(c3ccc(C(F)(F)F)cc3)c3cccnc3N2C1` [compound 85, N-((6aR,8R)-5-(4-(trifluoromethyl)phenyl)-5,6,6a,7,8,9-hexahydropyrido[3,2-e]pyrrolo[1,2-a]pyrazin-8-yl)methanesulfonamide], for which, in assay [1] (Homo sapiens, HEK-293T, 24 h), the IC50 is below 1 µM. Moreover, the EC50 was 1 to 10 µM in assay [2] (Homo sapiens, 144 h) and above 10 µM in assay [3] (Homo sapiens, 144 h).

Values taken from patent US20240409556A1, “BENZOPIPERAZINE AND RELATED ANALOGS FOR INHIBITING YAP/TAZ-TEAD” (Springworks Therapeutics, Inc., priority 2023, published 2024).
